Assays:
CDK2/cyclin E = CDK2/cyclin E (Homo sapiens, UniProt P24941); assay: Assay of kinase activity (ADP-Glo); assay type: biochemical; details: kinase inhibitory activity, read-out: CDK2/E1 IC50
Method: (§1) CDK/cyclin catalyzes the phosphorylation of a substrate, which concomitantly consumes ATP and produces ADP. The inhibition rate (%) in the presence of a small molecule inhibitor was assessed by measuring the amount of ADP generated in the reaction. The assay compounds were thoroughly mixed by vortexing and then diluted in DMSO to 100× the assay concentration. […] A 2× kinase solution was prepared using a 1× kinase reaction buffer (50 mM Hepes, 10 mM MgCl2, 0.01% Brij35, 2 mM DTT). 2 µL of the kinase solution was transferred to the 384-well assay plate, and the plate was centrifuged at 1000 rpm for 60 seconds in a microplate centrifuge. The plate was incubated at 25 °C in a biochemical incubator for 10 minutes. A 2x mixture of substrate and ATP was prepared in the kinase reaction buffer. Then, 2 µL of the mixture of substrate and ATP was added to the 384-well assay plate. The plate was centrifuged at 1000 rpm for 60 seconds in a microplate centrifuge, and incubated at 25 °C in a biochemical incubator for 60 minutes. 4 µL of ADP-Glo Reagent (Cat. No. V9103, manufacturer: Promega) incubated at 25 °C in a biochemical incubator was added to each well of the 384-well assay plate. The plate was centrifuged at 1000 rpm for 60 seconds in a microplate centrifuge, and incubated at 25 °C in a biochemical incubator for 40 minutes. 8 µL of Detection Reagent incubated at 25 °C in a biochemical incubator was added to each well of the 384-well assay plate. The plate was centrifuged at 1000 rpm for 60 seconds in a microplate centrifuge, and incubated at 25 °C in a biochemical incubator for 40 minutes. Finally, luminescence signals were read using a multifunctional microplate reader (model: PHERAstar FSX, manufacturer: BMG). IC50 values were calculated by nonlinear fitting of the concentration-response curves using GraphPad Prism software.

CDK4/cyclin D1 = CDK4/cyclin D1 (Homo sapiens, UniProt P11802); assay: Assay of kinase activity (ADP-Glo); assay type: biochemical; details: kinase inhibitory activity
CDK4/cyclin D1, sequence (P11802 whole entry, species assumed): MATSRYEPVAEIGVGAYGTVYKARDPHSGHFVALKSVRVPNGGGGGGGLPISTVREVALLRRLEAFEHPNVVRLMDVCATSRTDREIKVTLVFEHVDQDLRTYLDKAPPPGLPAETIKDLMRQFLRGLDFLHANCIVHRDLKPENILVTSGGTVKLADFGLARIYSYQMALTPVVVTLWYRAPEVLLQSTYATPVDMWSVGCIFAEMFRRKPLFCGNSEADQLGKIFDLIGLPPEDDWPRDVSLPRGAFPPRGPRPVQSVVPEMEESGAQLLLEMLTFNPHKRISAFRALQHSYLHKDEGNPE
CDK4/cyclin D1, sequence (P24385 whole entry partner, species assumed): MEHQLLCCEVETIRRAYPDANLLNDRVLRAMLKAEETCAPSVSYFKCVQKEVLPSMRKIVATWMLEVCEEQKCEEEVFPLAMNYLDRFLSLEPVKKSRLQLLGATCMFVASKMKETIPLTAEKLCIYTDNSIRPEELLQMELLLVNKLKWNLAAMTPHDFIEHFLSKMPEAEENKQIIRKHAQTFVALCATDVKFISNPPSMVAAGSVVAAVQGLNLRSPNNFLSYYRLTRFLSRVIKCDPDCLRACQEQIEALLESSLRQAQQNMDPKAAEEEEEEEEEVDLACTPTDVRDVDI
Method: as §1

CDK9/cyclin T1 = CDK9/cyclin T1 (Homo sapiens, UniProt P50750); assay: Assay of kinase activity (ADP-Glo); assay type: biochemical; details: kinase inhibitory activity
CDK9/cyclin T1, sequence (P50750 whole entry, species assumed): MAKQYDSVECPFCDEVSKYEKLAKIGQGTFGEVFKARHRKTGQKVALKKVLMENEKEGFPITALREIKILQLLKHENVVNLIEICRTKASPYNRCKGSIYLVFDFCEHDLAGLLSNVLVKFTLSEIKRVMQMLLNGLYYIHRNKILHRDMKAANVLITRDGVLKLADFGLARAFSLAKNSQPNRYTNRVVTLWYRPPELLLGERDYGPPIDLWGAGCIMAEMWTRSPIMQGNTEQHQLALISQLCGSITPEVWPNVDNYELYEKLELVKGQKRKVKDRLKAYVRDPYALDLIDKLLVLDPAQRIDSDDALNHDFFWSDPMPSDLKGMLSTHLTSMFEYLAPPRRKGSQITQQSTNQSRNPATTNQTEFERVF
CDK9/cyclin T1, sequence (O60563 whole entry partner, species assumed): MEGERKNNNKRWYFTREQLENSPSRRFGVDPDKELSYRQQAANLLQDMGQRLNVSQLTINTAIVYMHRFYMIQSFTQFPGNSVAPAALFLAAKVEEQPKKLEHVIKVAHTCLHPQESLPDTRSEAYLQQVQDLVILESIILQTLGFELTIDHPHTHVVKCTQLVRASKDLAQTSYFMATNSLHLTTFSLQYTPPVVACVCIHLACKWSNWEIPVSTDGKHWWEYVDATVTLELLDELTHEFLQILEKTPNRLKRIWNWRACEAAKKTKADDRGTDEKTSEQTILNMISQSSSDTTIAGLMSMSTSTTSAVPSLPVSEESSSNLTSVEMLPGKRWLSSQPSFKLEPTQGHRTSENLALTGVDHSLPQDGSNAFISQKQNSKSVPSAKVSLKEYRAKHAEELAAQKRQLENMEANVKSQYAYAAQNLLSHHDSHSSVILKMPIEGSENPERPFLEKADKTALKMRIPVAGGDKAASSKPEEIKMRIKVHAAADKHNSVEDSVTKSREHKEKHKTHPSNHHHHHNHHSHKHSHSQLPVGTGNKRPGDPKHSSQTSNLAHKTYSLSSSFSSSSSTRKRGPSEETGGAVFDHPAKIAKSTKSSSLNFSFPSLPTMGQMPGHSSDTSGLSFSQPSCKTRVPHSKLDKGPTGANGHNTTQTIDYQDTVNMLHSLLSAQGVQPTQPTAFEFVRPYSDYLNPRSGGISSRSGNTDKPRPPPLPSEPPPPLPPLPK
Method: (§2) CDK/cyclin catalyzes the phosphorylation of a substrate, which concomitantly consumes ATP and produces ADP. The inhibition rate (%) in the presence of a small molecule inhibitor was assessed by measuring the amount of ADP generated in the reaction. The assay compounds were thoroughly mixed by vortexing and then diluted in DMSO to 100× the assay concentration. 40 nL of a compound was transferred to a 384-well assay plate using a nanoliter pipetting system (ECHO® 655 SYSTEM). A 2× kinase solution was prepared using a 1× kinase reaction buffer (50 mM Hepes, 10 mM MgCl2, 0.01% Brij35, 2 mM DTT). 2 µL of the kinase solution was transferred to the 384-well assay plate, and the plate was centrifuged at 1000 rpm for 60 seconds in a microplate centrifuge. The plate was incubated at 25 °C in a biochemical incubator for 10 minutes. A 2x mixture of substrate and ATP was prepared in the kinase reaction buffer. Then, 2 µL of the mixture of substrate and ATP was added to the 384-well assay plate. The plate was centrifuged at 1000 rpm for 60 seconds in a microplate centrifuge, and incubated at 25 °C in a biochemical incubator for 60 minutes. 4 µL of ADP-Glo Reagent (Cat. No. V9103, manufacturer: Promega) incubated at 25 °C in a biochemical incubator was added to each well of the 384-well assay plate. The plate was centrifuged at 1000 rpm for 60 seconds in a microplate centrifuge, and incubated at 25 °C in a biochemical incubator for 40 minutes. 8 µL of Detection Reagent incubated at 25 °C in a biochemical incubator was added to each well of the 384-well assay plate. The plate was centrifuged at 1000 rpm for 60 seconds in a microplate centrifuge, and incubated at 25 °C in a biochemical incubator for 40 minutes. Finally, luminescence signals were read using a multifunctional microplate reader (model: PHERAstar FSX, manufacturer: BMG). IC50 values were calculated by nonlinear fitting of the concentration-response curves using GraphPad Prism software.

CDK6/cyclin D3 = CDK6/cyclin D3 (Homo sapiens, UniProt Q00534); assay: Assay of kinase activity (ADP-Glo); assay type: biochemical; details: kinase inhibitory activity
CDK6/cyclin D3, sequence (Q00534 whole entry, species assumed): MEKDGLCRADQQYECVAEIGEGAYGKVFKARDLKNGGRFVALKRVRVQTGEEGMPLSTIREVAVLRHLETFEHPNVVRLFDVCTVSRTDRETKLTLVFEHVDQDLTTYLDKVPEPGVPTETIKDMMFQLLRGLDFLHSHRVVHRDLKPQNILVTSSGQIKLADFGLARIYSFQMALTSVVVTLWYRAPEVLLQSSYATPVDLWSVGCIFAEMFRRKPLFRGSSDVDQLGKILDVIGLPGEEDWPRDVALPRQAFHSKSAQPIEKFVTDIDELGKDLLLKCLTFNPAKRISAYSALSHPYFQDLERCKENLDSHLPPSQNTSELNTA
CDK6/cyclin D3, sequence (P30281 whole entry partner, species assumed): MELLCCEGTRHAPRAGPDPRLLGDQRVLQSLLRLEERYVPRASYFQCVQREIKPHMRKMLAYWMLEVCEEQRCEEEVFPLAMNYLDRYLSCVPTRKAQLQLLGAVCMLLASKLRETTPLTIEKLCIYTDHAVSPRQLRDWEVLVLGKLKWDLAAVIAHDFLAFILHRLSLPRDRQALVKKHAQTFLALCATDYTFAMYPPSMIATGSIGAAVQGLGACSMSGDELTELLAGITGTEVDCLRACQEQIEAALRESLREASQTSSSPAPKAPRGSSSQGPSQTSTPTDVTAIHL
Method: as §2

[1] = test system: human gastric cancer MKN1 cells; assay: Assay of cell proliferation (CellTiter-Glo); assay type: cell-based; details: Homo sapiens, MKN-1, 144 h; MNK1, 6 days; read-out: MKN1 IC50 of cell proliferation inhibitory activity
Method: (§3) Human ovarian cancer OVCAR3 cells were inoculated at 2000 cells/well in a 96-well plate and cultured in RPMI 1640 medium containing 20% FBS at 37 °C and 5% CO2 overnight in an incubator. The next day, the compounds were subjected to a three-fold gradient dilution in DMSO from a peak concentration of 2 mM to give nine concentrations. Then, the compounds were diluted 3:200 in growth medium, and finally diluted 1:3 in the cell culture supernatant to give a culture supernatant containing 0.5% DMSO, with the compounds treatment concentrations ranging from 10 µM to 0.1 nM. The cells and the compounds were incubated at 37 °C and 5% CO2 for 6 days. Then, cell proliferation assay was performed using the CellTiter-Glo (manufacturer: Promega, Cat. No. G9242), and luminescence signals were read using a multifunctional microplate reader (model: Synergy H1, manufacturer: BiotTek). IC50 values were calculated by fitting of the concentration-response curves with a four-parameter analysis method using GraphPad Prism software.
(§4) The cell proliferation assays of human colon cancer HCT-116 cells, human breast cancer MCF-7 cells, human breast cancer HCC1806 cells, human acute myeloid leukemia MV-4-11 cells, and human gastric cancer MKN1 cells were performed according to the same method, with different inoculation densities set according to different cell growth characteristics.

[2] = test system: human breast cancer HCC1806 cells; assay: Assay of cell proliferation (CellTiter-Glo); assay type: cell-based; details: Homo sapiens, 144 h, 6 days, read-out: HCC1806 IC50 of cell proliferation inhibitory activity
Method: as §3, §4

[3] = test system: Human ovarian cancer OVCAR3 cells; assay: Assay of cell proliferation (CellTiter-Glo); assay type: cell-based; details: Homo sapiens, OVCAR-3, 144 h, 6 days, read-out: OVCAR3 IC50 of cell proliferation inhibitory activity
Method: as §3

Compound	IC50 (CDK2/cyclin E) [nM]	IC50 (CDK4/cyclin D1) [nM]	IC50 (CDK9/cyclin T1) [nM]	IC50 (CDK6/cyclin D3) [nM]	IC50 [1] [nM]	IC50 [2] [nM]	IC50 [3] [nM]
CC(C)n1nnc2c(C(F)F)cc3cnc(Nc4ccc(C(=O)N5CC[C@H](N(C)C)C5)cc4)nc3c21 [Example I-45, (S)-(4-((4-(Difluoromethyl)-1-isopropyl-1H-[1,2,3]triazolo[4,5-H]quinazolin-8-yl)amino)phenyl)(3-(dimethylamino)pyrrolidin-1-yl)methanone]	0.8	3	144	36	241	476	359
CN(C)[C@H]1CCN(C(=O)c2ccc(Nc3ncc4ccc5nnn(C6CCCC6)c5c4n3)cc2)C1 [Example I-40, (S)-(4-((1-cyclopentyl-1H-[1,2,3]triazolo[4,5-H]quinazolin-8-yl)amino)phenyl)(3-(dimethylamino)pyrrolidin-1-yl)methanone]	0.06	0.7	2	3	5	16	10
CN[C@H]1CCN(C(=O)c2ccc(Nc3ncc4ccc5nnn(C6CCCC6)c5c4n3)cc2)C1 [Example I-39, (S)-(4-((1-cyclopentyl-1H-[1,2,3]triazolo[4,5-H]quinazolin-8-yl)amino)phenyl)(3-(methylamino)pyrrolidin-1-yl)methanone]	0.07	0.7	2	4	1	7	5
N[C@H]1CCN(C(=O)c2ccc(Nc3ncc4ccc5nnn(C6CCCC6)c5c4n3)cc2)C1 [Example I-38, (S)-(3-Aminopyrrolidin-1-yl)(4-((1-cyclopentyl-1H-[1,2,3]triazolo[4,5-H]quinazolin-8-yl)amino)phenyl)methanone]	0.05	0.5	4	3	1	13	8
CC(C)n1nnc2ccc3cnc(Nc4ccc(C(=O)N5CCN(C)CC5)c(F)c4)nc3c21 [Example I-26, (2-Fluoro-4-((1-isopropyl-1H-[1,2,3]triazolo[4,5-H]quinazolin-8-yl)amino)phenyl)(4-methylpiperazin-1-yl)methanone]	1	4	16	19	41	436	45
CC(C)N1CCN(C(=O)c2ccc(Nc3ncc4ccc5nnn(C(C)C)c5c4n3)cc2)CC1 [Example I-30, (4-Isopropylpiperazin-1-yl)(4-((1-isopropyl-1H-[1,2,3]triazolo[4,5-H]quinazolin-8-yl)amino)phenyl)metha none]	1	2	44	94	20	151	19
C[C@H](CO)n1nnc2ccc3cnc(Nc4ccc(C(=O)N5CCNCC5)cc4)nc3c21 [Example I-50, (R)-(4-((1-(1-Hydroxypropan-2-yl)-1H-[1,2,3]triazolo[4,5-H]quinazolin-8-yl)amino)phenyl)(piperazin-1-yl)methanone]	2	4	100	85	548	1740	1310
C[C@@H](CO)n1nnc2ccc3cnc(Nc4ccc(C(=O)N5CCOCC5)cc4)nc3c21 [Example I-49, (S)-(4-((1-(1-Hydroxypropan-2-yl)-1H-[1,2,3]triazolo[4,5-H]quinazolin-8-yl)amino)phenyl)(morpholino)methanone]	3	21	390	401	–	2160	1370
CC(C)n1nnc2c(C(F)F)cc3cnc(Nc4ccc(C(=O)N5CCCN(C)CC5)cc4)nc3c21 [Example I-47, (4-((4-(Difluoromethyl)-1-isopropyl-1H-[1,2,3]triazolo[4,5-H]quinazolin-8-yl)amino)phenyl)(4-methyl-1,4-diazepan-1-yl)methanone]	0.7	2	148	20	111	169	146
CC(C)(O)Cn1nnc2ccc3cnc(Nc4ccc(C(=O)N5CCOCC5)cc4)nc3c21 [Example I-53, (4-((1-(2-Hydroxy-2-methylpropyl)-1H-[1,2,3]triazolo[4,5-H]quinazolin-8-yl)amino)phenyl)(morpholino)methanone]	8	49	995	803	–	3170	1720
CC(C)n1nnc2ccc3cnc(Nc4ccc(C(=O)N5CCC(N(C)C)CC5)cc4)nc3c21 [Example I-15, (4-(Dimethylamino)piperidin-1-yl)(4-((1-isopropyl-1H-[1,2,3]triazolo[4,5-H]quinazolin-8-yl)amino)phenyl)metha none]	1	2	44	94	–	177	264
CC(C)(O)Cn1nnc2ccc3cnc(Nc4ccc(C(=O)N5CCNCC5)cc4)nc3c21 [Example I-52, (4-((1-(2-Hydroxy-2-methylpropyl)-1H-[1,2,3]triazolo[4,5-H]quinazolin-8-yl)amino)phenyl)(piperazin-1-yl)methanone]	4	10	419	127	–	5090	–
C[C@@H](CO)n1nnc2ccc3cnc(Nc4ccc(C(=O)N5CCNCC5)cc4)nc3c21 [Example I-48, (S)-(4-((1-(1-Hydroxypropan-2-yl)-1H-[1,2,3]triazolo[4,5-H]quinazolin-8-yl)amino)phenyl)(piperazin-1-yl)methanone]	3	7	344	205	–	5500	–

Reference: EP4711369A1, “1H-[1,2,3]TRIAZOLO[4,5-H]QUINAZOLINE COMPOUNDS AS PROTEIN KINASE INHIBITORS” (Chengdu Cynogen Bio-Pharmaceutical Technology Co., Ltd., priority 2023, dated 2024)
